Assay results taken from US20090017103A1, “Antisense oligonucleotides for prevention of metastasis formation of cancer cells” (priority 2003, published 2009).
Marks after values point to notes of the source that are not given here.

Experiments:
Format in all cases: cell-based, human
osteonectin = test: Western blot of osteonectin expression after exposure to ASOs; conditions: single exposure, lipofectamine, 10 μM
bone sialoprotein II = test: Western blot of bone sialoprotein II expression after exposure to ASOs; conditions: 10 μM
[1] = test system: MDA-MB-231 breast cancer cells; test: Clonogenicity assay (colony formation); conditions: for inhibition of colony formation (colony growth inhibition): single exposure
Method: For determining the response of MDA-MB-231 colony formation to exposure with antisense oligonucleotides and erucylphospho-NNN-trimethylpropanolamine (ErPC3) the following procedure was used. MDA-MB-231 cells were treated for various periods of time (see below), harvested and counted. Cells (5000) were then transferred into semi-solid medium containing 0.8t RPMI-methylcellulose and 30% FBS. Cells were plated onto 3.5 cm Petri-dishes (1 ml/dish) (NUNC, Wiesbaden, Germany) and usual cell culture conditions (37° C., 5% CO2 in humidified air) were applied. Colony formation (clusters of 30 or more cells) was visualized by staining with 3-[4,5-dimethylthiazol-2-yl]-2,5-diphenyltetrazolium-bromide (MTT; Serva, Heidelberg, Germany) and the resulting dark blue colonies were scored by an inverted microscope after 5-7 days. At least three dishes per treatment protocol were used.
Pending on the duration of treatment, 1×10^5-3×10^5 cells were transferred onto 6 well plates (Nunc, Wiesbaden, Germany) and grown for 24 h. For transfection, ASO stock solutions were prepared in medium without FBS. According to the protocol of the manufacturer, the respective ASO stock solution was mixed with lipofectamine to allow ASO-liposome complexes to form. To 200 μl medium containing ASO quantities resulting in 10 μM (Western blot and in vivo model) and in 5, 10, or 20 μM (clonogenicity assay) final ASO-concentrations, an equal volume of medium without FBS was added containing 5, 10, or 20 μl lipofectamine, respectively. In addition to the ASO treatment, a NSO control (20 μM final concentration with 20 μl lipofectamine) and a lipofectamine control (20 μl) were used. […] After 12 h the medium was changed, and cells were further grown for 48-72 h. In the case of a sequential combination treatment this first cycle was repeated with the respective combination partner.
The alkylphosphocholine ErPC3 was synthesized and provided by Prof. H. Eibl (MPI of Biophysical Chemistry, Göttingen, FRG). For treating MDA-MB-231 cells, ErPC3 which was kept as stock solution in ethanol and PBS (10 mM; ratio of diluents 1:1; V:V), was diluted in PBS resulting in final concentrations of 10, 14, and 20 μM. The medium containing ErPC3 was changed after 24 h in all experiments and the cells were further grown for 48-72 h without ErPC3 (for details of sequential exposure see below).
Sequential combination treatment consisted of two or three treatment cycles. The two cycle treatment started either with the ASO and was followed by ErPC3 or was performed with the reverse sequence. The three cycle treatment started either with two cycles of ASO followed by ErPC3 or an initial exposure to ErPC3 was followed by two cycles with an ASO.
Colony counts are presented as mean with corresponding standard deviation. For comparison of incidences between treatment groups the x^2 test was used and for comparison of the lesion sizes the Kruskal-Wallis test was applied. P values≦0.05 were considered significant. Predicted theoretical values of combinations were calculated according to the equation: C=a×b/100, where a and b are colony counts in percent of untreated control obtained in response to single agents. For each concentration applied theoretical values were calculated and compared with the real value of the combination. In addition, isobologram and multiple drug effect analysis was examined by a suitable program (CalcuSyn, Biosoft, Ferguson, USA) to study the nature of the interaction observed. For this purpose, the dose-effect curve for each drug alone was determined based on the experimental observations using the median-effect principle; the combination index (CI) for each combination was then calculated according to the following equation:
CI=(D)1/(Dx)1+(D)2/(Dx)2+(D1)×(D2)/(Dx)1×(Dx)2
where (D)1 and (D)2 are the doses of drug 1 and drug 2 that have x effect when used in combination and (Dx)1 and (Dx)2 are the doses of drug 1 and drug 2 that have the same x effect when used alone. […]

[2] = MDA-MB231^F (growing without FBS)
[3] = MDA-MB231, single exposure, electroporation
[4] = MDA-MB231, single exposure, lipofectamine
[5] = MDA-MB231^F (growing without FBS), single exposure, lipofectamine
[6] = MDA-MB435s, single exposure, lipofectamine
[7] = MDA-MB231, twofold exposure, lipofectamine

Row | Compound | bone sialoprotein II expression in relation to untreated control (100%) (bone sialoprotein II; [3]) [%] | bone sialoprotein II expression in relation to untreated control (100%) (bone sialoprotein II; [4]) [%] | bone sialoprotein II expression in relation to untreated control (100%) (bone sialoprotein II; [5]) [%] | bone sialoprotein II expression in relation to untreated control (100%) (bone sialoprotein II; [6]) [%] | bone sialoprotein II expression in relation to untreated control (100%) (bone sialoprotein II; [7]) | further results
1 | 5′-ATGCGCAGGGGGAATTCGGT (antisense ATGCGCAGGGGGAATTCGGT; all phosphorothioate, sugars by position and methylation of C not given here) [ASO-ON-4] |  |  |  |  |  | osteonectin expression in relation to untreated control (100%) (osteonectin; MDA-MB231): 50%; osteonectin expression in relation to untreated control (100%) (osteonectin; [2]): 31%; osteonectin expression in relation to untreated control (100%) (osteonectin; MDA-MB435s): 62%
2 | 5′-CCATCATCAAATTCTCCTAC-3′ (antisense CCATCATCAAATTCTCCTAC; all phosphorothioate, sugars by position and methylation of C not given here) [ASO-ON-2] |  |  |  |  |  | osteonectin expression in relation to untreated control (100%) (osteonectin; MDA-MB231): 61%; osteonectin expression in relation to untreated control (100%) (osteonectin; [2]): 17%; osteonectin expression in relation to untreated control (100%) (osteonectin; MDA-MB435s): 64%
3 | 5′-ATTCTTCATTGTTTTCTCCT-3 (antisense ATTCTTCATTGTTTTCTCCT; all phosphorothioate, sugars by position and methylation of C not given here) [ASO-BSPII-4] | 55 | 73 | 109 | 26 |  | 
4 | 5′-ACTGGTGGTGGTAGTAATTC-3′ (antisense ACTGGTGGTGGTAGTAATTC; all phosphorothioate, sugars by position and methylation of C not given here) [ASO-BSPII-9] | 46 | 35 | 84 | 49 |  | 
5 | 5′-TCACTGGTGGTGGTAGTAAT-3′ (antisense TCACTGGTGGTGGTAGTAAT; all phosphorothioate, sugars by position and methylation of C not given here) [ASO-BSPII-10] | 40 | 33 | 30 | 39 |  | 
6 | 5′-CTGCCTTCCGGTCTCTGTGG-3′ (antisense CTGCCTTCCGGTCTCTGTGG; all phosphorothioate, sugars by position and methylation of C not given here) [ASO-BSPII-8] | 34 | 62 | 101 | 32 | 25% | 
7 | 5′-ATTTTGGTGATTGCTTCCTC-3′ (antisense ATTTTGGTGATTGCTTCCTC; all phosphorothioate, sugars by position and methylation of C not given here) [ASO-BSPII-2] | 94 | 38 | 94 | 26 |  | 
8 | 5′-TTCCGGTCTCTGTGGTGTCT-3′ [ASO-BSPII-7] | 25 | 58 | 37 | 51 | 22% | 
9 | CCCCCCCC/C=C\CCCCCCCCCCCCOP(=O)([O-])OCCC[N+](C)(C)C [ErPC3, Erucylphospho-NNN-trimethylpropanolamine, reference compound] |  |  |  |  |  | % Control ([1]; Exp. III a, 14 μM): 52%; Mean colony no. ([1]; Exp. III a, 14 μM, control 456): 239^5); % Control ([1]; Experiment I, single treatment, 10 μM): 89%; Mean colony no. ([1]; Experiment I, single treatment, 10 μM, control 778): 691^8); % Control ([1]; Experiment I, single treatment, 14 μM): 55%; Mean colony no. ([1]; Experiment I, single treatment, 14 μM, control 778): 425^7); % Control ([1]; Experiment I, single treatment, 20 μM): 22%; Mean colony no. ([1]; Experiment I, single treatment, 20 μM, control 778): 169; % Control ([1]; Experiment II, single treatment, 10 μM): 88%; Mean colony no. ([1]; Experiment II, single treatment, 10 μM, control 705): 621^8); % Control ([1]; Experiment II, single treatment, 14 μM): 55%; Mean colony no. ([1]; Experiment II, single treatment, 14 μM, control 705): 385^7); % Control ([1]; Experiment II, single treatment, 20 μM): 25%; Mean colony no. ([1]; Experiment II, single treatment, 20 μM, control 705): 173; % Control ([1]; Experiment III b, 14 μM): 59%; Mean colony no. ([1]; Experiment III b, 14 μM, control 517): 311^5); inhibition of colony formation (colony growth inhibition) ([1]; 10 μM): 11%; inhibition of colony formation (colony growth inhibition) ([1]; 14 μM): 45%; inhibition of colony formation (colony growth inhibition) ([1]; 20 μM): 78%
10 | 5′-TGATTGCTTCCTCTGGCAGT-3′ (antisense TGATTGCTTCCTCTGGCAGT; all phosphorothioate, sugars by position and methylation of C not given here) [ASO-BSPII-1] | 78 | 45 | 58 | 16 | 19^2) % | 
11 | 5′-CTTCATCACTTTCCTTCTCT-3′ (antisense CTTCATCACTTTCCTTCTCT; all phosphorothioate, sugars by position and methylation of C not given here) [ASO-BSPII-5] | 63 | 27 | 101 | 41 | 46% | 
12 | 5′-CTTCATTGTTTTCTCCTTCA-3′ (antisense CTTCATTGTTTTCTCCTTCA; all phosphorothioate, sugars by position and methylation of C not given here) [ASO-BSPII-3] | 44 | 97 | 93 | 22 |  | 
